Data set [1] deals with T1, LRRK2 (Homo sapiens, UniProt Q5S007). The data set can be described thus: experiment of inhibiting kinase activity, LRRK2. It counts as biochemical. The settings on record: for IC50: kinase activity assay, Table 3. The method, then:
The inhibition rates of tested compounds on JAK1, JAK2, JAK3, TYK2, CDK7, CDK9, EGFR (T790M) and LRRK2 kinases were measured. The test concentrations of the compounds were 10 nM and 100 nM, and the detection was performed by replicate wells. Alternatively, compounds were 3-fold serial diluted from 10 µM for 10 concentrations in replicate wells.

Data set [2] addresses T2, wild-type LRRK2 (Homo sapiens, UniProt Q5S007).
T2 construct: pCMV-flag-WT LRRK2 (full-length); expressed in transfected cells; host or cells: HEK293T
The data set can be described thus: detection of phosphorylated S935 in HEK293T overexpressing wild-type LRRK2. It counts as cell-based. The settings on record: pS935, HEK293T overexpressing wild-type LRRK2, 1.5 hours. The protocol: Detection of phosphorylated S935 in HEK293T Overexpressing full-length LRRK2 (G2019S) or wild-type LRRK2
HEK293T cells was inoculated into a 6-well plate and cultured overnight. The next day, they were transiently transfected with plasmid pcDNA5-FRT/TO-FLAG LRRK2 (G2019S, full-length) or pCMV-flag-WT LRRK2 (full-length) by using Superfect transfection reagent and cultured at 37°C and 5% CO2 for 20-24 hours. The next day, cells were collected, resuspended at a density of 0.48×10^6 cells/ml, and inoculated into a 384-well plate at 50 microliters/well. Compound or DMSO solutions (volume ratio of 0.5%) were added by Tecan, and cultured at 37°C and 5% CO2 for 1.5 hours. After 1.5 hours, the supernatant was discarded, 50 microliters of 8% PFA were added in each well to fix the cells, and the cells were incubated at room temperature for 1 hour. The plate was washed with EL406 plate washer for three times, with 115 microliters of PBST per well, and the culture plate was patted to dryness. The cells were blocked with 50 microliters/well of Licor Odyssey blocking solution (0.1% Tween 20) at room temperature for 1.5 hours. The blocking solution was discarded and the culture plate was patted to dryness. 20 microliters of primary antibody (1:1000(pS935), diluted with Licor Odyssey buffer (0.1% Tween20)) was added into each well, and incubated at 4 °C overnight. The next day, the first antibody was discarded and washing was performed with PBST for five times. 20 microliters of secondary antibody (diluted with Licor Odyssey buffer (0.1% Tween20) at 1:500 and stained with DNA at 1:2000) were added into each well, and incubated at room temperature for 1 hour. The second antibody was discarded, and washing was performed for three times with PBST. The fluorescence intensity was measured by LICOR Odyssey imager Scanner, and the data was analyzed.

The target in data set [3] is T3, JAK1 (Homo sapiens, UniProt P23458). The data set is described as follows: experiment of inhibiting kinase activity (Caliper mobility shift assay), JAK1. It counts as biochemical. An outline of the steps: (§1)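 Mobility-shift readout of substrate conversion; % inhibition normalized to uninhibited-enzyme wells (0%) and buffer-only background wells. Dosing: single points at 10 and 100 nM, or 3-fold series from 10 µM (10 conc.), replicates. Kinase + compound 10 min RT, then ATP/substrate.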

Data set [4] has as its target JAK2 (Homo sapiens, UniProt O60674). The data set can be described thus: experiment of inhibiting kinase activity (Caliper mobility shift assay), JAK2. It counts as biochemical. The gist of the method: as §1
Data set [5] concerns the target T3, JAK1. The data set can be described thus: JAKs cell activity test: detection of pSTAT6 in THP1 cells induced by JAK1_IL-4. It counts as cell-based. The note with it: pSTAT6, IL-4-induced THP1 cells. The protocol:
Detection of pSTAT6 in THP1 cells induced by JAK1_IL-4
THP1 cells were collected by centrifugation, resuspended with 1×HBSS, counted and diluted to a certain cell density. They were inoculated in a 384-well plate and cultured in a saturated humidity incubator with 37 °C and 5% CO2. The compound (DMSO final volume of 0.3%) was added to THP1 cells (10 doses in duplicates) and cultured in a saturated humidity incubator with 37 °C and 5% CO2. hIL-4 was added to stimulate cells and cultured in a saturated humidity incubator with 37 °C and 5% CO2. The lysis solution was added and incubated at room temperature. According to the instructions of AlphaLISA SureFire Ultra p-STAT6 detection kit, the lysis solution was transferred to pSTAT6 detection system, and the ALPHA signal was read by PE Envision microplate reader. The inhibition rate Inh%=((DMSO-sample)/(DMSO-background))×100 was calculated. IC50 was obtained by fitting with GraphPad Prism non-linear regression equation, and y=Bottom+(Top-Bottom)/(1+10^((LogIC50-x)×hillslope)), where x was the concentration of the compound and y was the inhibition rate.

Data set [6] in a line: measurement of the solubility of compounds in water and diluted hydrochloric acid. It counts as physicochemical. The settings on record: thermodynamic from solid. The protocol:
Example 117: measurement of the solubility of compounds in water and diluted hydrochloric acid
The compounds were dissolved in acetonitrile (LCMS pure) and prepared into standard samples having the concentration gradient of 1000 µg/mL, 500 µg/mL, 250 µg/mL, 125 µg/mL, 62.5 µg/mL, and 31.25 µg/mL.
About 1.0 mg of the powder of the compound to be tested was weighed and added to 0.3 mL of ultrapure water (pH-6), the resulting mixture was shaked thoroughly at room temperature overnight and centrifuged, and the supernatant was taken and diluted 10 times with acetonitrile. The sample was analyzed after mixing evenly.
153.8 µL of 6 M HCl was pipetted, 20 mL of water was added, and mixed evenly to prepare diluted hydrochloric acid solution A (pH-1.5). About 1.0 mg of the powder of the compound to be tested was weighed and added to 0.3 mL of diluted hydrochloric acid solution A, the resulting mixture was shaked thoroughly at room temperature for 1 hour and centrifuged, and the supernatant was taken and diluted 10 times with acetonitrile. The sample was analyzed after mixing evenly.
The standard sample and the sample to be tested were analyzed by Shimadzu LCMS-2020, where chromatographic column was Skim-psck GIST 5 µm C18 2.1*[…]; mobile phase A was water and mobile phase B was methanol; and flow rate was 0.3 mL/min. The gradient of B was as the following: 0 min: 10%; 0-1.0 min: 10%; 1.0-2.5 min: 95%; 3.0-4.0 min: 95%; 4.0-4.1 min: 10%; 4.1-6.0 min: 10%.
The relationship between the concentration and peak area of the standard sample was ploted into a standard curve, and the concentration of the sample to be tested was calibrated using this standard curve. Compound solubility = concentration of the sample to be tested × 10 [formula]

Data set [7] deals with T1, LRRK2. The data set can be described thus: experiment of inhibiting LRRK2 kinase activity (ADP-Glo method). It counts as biochemical. The note with it: Table 4. For orientation: ADP-Glo first removes unused ATP, then detects ADP through luciferase.
Data set [8] has as its target T4, endogenous phosphorylated LRRK2 (S935) (Homo sapiens, UniProt Q5S007).
T4 construct: Detection of endogenous phosphorylated LRRK2 (S935) in A549 cells; endogenous in cells; host or cells: A549
The data set can be described thus: detection of endogenous phosphorylated LRRK2 (S935) in A549 cells (Western blot). The note with it: at 2 µM, LRRK2 (S935) activity in A549 cells, 15 hours; read-out: Inhibition rate. It counts as cell-based. The method, then:
Detection of endogenous phosphorylated LRRK2 (S935) in A549 cells
A549 cells were resuspended in serum-free 1640 medium at a density of 1×10^6 cells/ml, and inoculated into a 6-well plate at 1 ml/well, and cultured at 37°C and 5% CO2 for 6-8 hours. 1 microliter of compound solution in DMSO or DMSO (volume ratio of 0.1%) was added, mixed evenly, and cultivated at 37°C and 5% CO2 for 15 hours. Cells were collected, 50 microliters of RIPA III lysis solution were added to each sample to lyse cells on ice for 15 minutes, centrifuged at 4°C and 13000 rpm for 30 minutes, the supernatant was collected, the protein concentration of cell lysis solution was measured by BCA, and the protein concentrations of all samples were normalized. 5×sample loading buffer were added and kept at 95°C for 10 minutes. The content of phosphorylated S935 of endogenous LRRK2 was detected by Western blot, using antibody against phosphorylated LRRK2 (S935) (Abcam#133450). The signal intensity of phosphorylated LRRK2 (S935) was counted by Image J, the signal of phosphorylated LRRK2 (S935) in a sample was normalized by β-actin, and the data was analyzed.

Each structure is given as a SMILES string. Converted amounts (≈) assume the structure as drawn.

T3 sequence (P23458 whole entry): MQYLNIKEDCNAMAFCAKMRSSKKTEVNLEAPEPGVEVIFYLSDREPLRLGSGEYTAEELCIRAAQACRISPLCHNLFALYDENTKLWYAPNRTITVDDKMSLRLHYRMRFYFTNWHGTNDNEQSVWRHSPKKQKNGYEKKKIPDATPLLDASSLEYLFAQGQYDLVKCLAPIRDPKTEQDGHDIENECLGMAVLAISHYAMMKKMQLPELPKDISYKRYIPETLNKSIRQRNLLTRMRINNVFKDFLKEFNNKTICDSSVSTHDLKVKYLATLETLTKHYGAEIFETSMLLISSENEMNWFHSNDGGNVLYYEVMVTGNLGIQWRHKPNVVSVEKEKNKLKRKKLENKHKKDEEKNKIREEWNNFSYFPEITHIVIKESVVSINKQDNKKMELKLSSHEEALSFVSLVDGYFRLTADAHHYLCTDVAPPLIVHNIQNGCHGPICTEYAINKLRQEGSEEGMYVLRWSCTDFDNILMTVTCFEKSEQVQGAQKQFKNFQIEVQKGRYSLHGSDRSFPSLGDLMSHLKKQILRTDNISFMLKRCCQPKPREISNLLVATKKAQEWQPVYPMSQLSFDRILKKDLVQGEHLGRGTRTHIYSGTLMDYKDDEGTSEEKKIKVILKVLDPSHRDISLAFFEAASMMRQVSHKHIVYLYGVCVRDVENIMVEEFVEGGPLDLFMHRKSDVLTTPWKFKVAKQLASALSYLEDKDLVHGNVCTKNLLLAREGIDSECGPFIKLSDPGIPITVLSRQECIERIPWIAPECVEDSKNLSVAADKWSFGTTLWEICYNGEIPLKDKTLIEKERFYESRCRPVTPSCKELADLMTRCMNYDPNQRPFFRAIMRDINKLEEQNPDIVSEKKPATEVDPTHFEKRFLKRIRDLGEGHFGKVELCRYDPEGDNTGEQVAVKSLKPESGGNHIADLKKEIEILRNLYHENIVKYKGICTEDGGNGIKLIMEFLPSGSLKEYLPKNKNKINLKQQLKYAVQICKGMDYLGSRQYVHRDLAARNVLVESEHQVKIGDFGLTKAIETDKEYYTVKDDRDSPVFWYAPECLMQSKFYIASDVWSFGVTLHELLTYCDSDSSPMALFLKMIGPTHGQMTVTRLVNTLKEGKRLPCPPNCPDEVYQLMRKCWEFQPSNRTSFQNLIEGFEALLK
T1 sequence (Q5S007 whole entry): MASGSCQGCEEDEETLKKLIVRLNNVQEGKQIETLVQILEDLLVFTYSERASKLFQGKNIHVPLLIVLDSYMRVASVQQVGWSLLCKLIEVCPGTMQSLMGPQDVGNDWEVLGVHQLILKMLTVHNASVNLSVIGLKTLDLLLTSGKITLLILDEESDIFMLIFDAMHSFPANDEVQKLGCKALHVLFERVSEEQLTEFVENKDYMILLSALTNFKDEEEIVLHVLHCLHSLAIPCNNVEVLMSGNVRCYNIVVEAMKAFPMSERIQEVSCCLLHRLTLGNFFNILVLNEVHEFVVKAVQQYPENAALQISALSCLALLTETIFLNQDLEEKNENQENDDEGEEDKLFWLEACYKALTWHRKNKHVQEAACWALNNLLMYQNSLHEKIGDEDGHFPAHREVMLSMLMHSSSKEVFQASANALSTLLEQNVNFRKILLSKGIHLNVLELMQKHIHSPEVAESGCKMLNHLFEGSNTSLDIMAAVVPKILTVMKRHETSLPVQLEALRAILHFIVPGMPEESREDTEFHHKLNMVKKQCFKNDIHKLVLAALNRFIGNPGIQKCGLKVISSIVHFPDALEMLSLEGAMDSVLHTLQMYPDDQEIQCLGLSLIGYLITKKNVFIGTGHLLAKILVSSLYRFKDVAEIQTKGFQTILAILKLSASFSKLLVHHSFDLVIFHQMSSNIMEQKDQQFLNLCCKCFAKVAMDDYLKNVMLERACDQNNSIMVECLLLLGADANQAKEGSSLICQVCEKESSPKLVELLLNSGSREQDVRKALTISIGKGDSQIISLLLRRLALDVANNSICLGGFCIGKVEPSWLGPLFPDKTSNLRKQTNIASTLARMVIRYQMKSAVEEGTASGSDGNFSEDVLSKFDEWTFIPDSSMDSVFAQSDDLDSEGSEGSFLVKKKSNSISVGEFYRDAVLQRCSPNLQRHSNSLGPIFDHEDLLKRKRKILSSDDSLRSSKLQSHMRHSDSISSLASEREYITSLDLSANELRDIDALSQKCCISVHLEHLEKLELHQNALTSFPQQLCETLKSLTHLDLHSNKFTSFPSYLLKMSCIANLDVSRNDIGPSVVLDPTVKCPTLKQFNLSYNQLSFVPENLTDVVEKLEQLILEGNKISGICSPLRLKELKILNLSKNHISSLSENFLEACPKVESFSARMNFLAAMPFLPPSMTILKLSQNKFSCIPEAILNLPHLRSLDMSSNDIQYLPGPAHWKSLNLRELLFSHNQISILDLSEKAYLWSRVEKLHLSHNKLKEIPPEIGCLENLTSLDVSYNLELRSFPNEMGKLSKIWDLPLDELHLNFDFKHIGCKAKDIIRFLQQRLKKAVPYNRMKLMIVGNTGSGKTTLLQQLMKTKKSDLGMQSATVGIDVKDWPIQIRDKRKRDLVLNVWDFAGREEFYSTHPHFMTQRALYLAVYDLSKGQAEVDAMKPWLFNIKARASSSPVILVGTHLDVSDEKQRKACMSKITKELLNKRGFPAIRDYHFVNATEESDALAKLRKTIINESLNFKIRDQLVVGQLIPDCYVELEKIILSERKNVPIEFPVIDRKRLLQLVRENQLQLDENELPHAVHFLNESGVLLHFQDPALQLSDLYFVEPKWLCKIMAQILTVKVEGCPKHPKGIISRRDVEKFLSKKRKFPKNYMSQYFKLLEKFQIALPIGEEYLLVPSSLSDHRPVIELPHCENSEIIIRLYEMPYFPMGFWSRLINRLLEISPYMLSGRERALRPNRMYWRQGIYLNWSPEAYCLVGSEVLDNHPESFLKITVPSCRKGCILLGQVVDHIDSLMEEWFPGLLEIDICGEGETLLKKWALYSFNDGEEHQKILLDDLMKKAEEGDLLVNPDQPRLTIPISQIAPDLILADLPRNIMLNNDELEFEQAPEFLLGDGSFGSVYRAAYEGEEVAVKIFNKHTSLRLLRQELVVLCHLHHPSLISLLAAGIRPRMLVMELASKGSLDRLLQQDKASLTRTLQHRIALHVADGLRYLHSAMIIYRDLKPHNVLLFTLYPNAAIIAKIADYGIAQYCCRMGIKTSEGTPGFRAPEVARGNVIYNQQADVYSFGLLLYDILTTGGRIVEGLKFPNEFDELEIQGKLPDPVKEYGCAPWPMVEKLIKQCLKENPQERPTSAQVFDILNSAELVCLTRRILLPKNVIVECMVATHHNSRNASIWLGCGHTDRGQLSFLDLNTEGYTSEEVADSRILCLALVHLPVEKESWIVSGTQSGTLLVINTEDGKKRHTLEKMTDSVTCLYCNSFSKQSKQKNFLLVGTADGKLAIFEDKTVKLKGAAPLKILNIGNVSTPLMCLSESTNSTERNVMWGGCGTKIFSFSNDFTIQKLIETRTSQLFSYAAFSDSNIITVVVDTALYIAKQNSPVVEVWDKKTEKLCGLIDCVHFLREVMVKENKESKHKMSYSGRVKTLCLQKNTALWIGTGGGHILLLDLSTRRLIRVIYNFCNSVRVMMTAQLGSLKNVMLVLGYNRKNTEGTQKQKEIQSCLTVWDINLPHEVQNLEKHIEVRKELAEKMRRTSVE
JAK2, sequence (O60674 whole entry): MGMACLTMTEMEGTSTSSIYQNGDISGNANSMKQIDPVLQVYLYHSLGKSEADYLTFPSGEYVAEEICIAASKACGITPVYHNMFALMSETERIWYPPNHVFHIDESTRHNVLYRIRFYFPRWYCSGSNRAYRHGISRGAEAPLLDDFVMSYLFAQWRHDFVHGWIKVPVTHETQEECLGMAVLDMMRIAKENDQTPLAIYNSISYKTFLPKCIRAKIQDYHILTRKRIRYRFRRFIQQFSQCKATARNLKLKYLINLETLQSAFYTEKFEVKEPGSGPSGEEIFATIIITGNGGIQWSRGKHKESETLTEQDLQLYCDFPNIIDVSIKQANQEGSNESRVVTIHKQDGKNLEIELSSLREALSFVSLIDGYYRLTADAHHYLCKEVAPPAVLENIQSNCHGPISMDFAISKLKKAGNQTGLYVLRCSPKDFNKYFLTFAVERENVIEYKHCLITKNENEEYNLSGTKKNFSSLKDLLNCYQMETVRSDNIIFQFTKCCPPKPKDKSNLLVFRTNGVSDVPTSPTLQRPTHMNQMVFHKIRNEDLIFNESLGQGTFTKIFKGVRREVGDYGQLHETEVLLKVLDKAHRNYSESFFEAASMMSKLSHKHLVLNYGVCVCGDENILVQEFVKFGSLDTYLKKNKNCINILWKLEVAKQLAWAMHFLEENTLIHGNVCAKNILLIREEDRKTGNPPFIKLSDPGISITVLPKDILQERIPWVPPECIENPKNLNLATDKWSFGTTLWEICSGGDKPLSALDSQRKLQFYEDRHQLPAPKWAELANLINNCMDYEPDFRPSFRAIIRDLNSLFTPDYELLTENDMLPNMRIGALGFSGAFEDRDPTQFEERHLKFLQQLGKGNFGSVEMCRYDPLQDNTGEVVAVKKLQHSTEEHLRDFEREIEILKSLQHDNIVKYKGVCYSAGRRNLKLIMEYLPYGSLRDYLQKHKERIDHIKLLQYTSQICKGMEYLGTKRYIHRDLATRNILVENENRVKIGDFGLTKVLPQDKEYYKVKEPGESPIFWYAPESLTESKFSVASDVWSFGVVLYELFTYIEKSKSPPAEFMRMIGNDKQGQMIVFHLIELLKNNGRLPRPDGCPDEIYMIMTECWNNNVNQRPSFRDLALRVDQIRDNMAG
T2 sequence (Q5S007 whole entry): as the sequence (Q5S007 whole entry) above
T4 sequence (Q5S007 whole entry): as above

For the compound `CN1CCOc2ccc(Nc3nc(NCCS(C)(=O)=O)c4cc[nH]c4n3)cc2OCC1` [Example 84, N^2-(4-methyl-3,4,5,6-tetrahydro-2H-benzo[b][1,4,7]dioxazolin-9-yl)-N^4-(2-(methylsulfonyl)ethyl)-7H-pyrrolo[2,3-d]pyrimidin-2,4-diamine], in data set [1] (at 10 nM, read-out: inhibition rate LRRK2), the inhibition at 0.01 µM fell in the range of 40 to 79%. Also, the IC50 in data set [1] was less than 50 nM. The same compound registered an EC50 in data set [2] of 1000 to 5000 nM.

With `CN1CCOc2ccc(Nc3nc(-c4ccc(C(=O)NCC#N)cc4)c4cc[nH]c4n3)cc2OCC1` [Example 2, N-(cyanomethyl)-4-(2-((4-methyl-3,4,5,6-tetrahydro-2H-benzo[b][1,4,7]dioxazolin-9-yl)amino)-7H-pyrrolo[2,3-d]pyrimidin-4-yl)benzamide], the inhibition at 0.1 µM is greater than 80% in data set [3] (at 100 nM, read-out: inhibition rate JAK1); greater than 80% in data set [4] (at 100 nM, read-out: inhibition rate JAK2); greater than 80% in data set [1] (at 100 nM, read-out: inhibition rate LRRK2). For the same compound, the IC50 in data set [3] (kinase activity assay, Table 3) was less than 50 nM; in data set [4] (kinase activity assay, Table 3), less than 50 nM; in data set [1], less than 50 nM. Further, in data set [4] (at 10 nM, read-out: inhibition rate JAK2), the inhibition at 0.01 µM was 40 to 79%. Also, the EC50 in data set [5] is less than 50 nM; in data set [2], less than 500 nM.

In turn, `CN1CCOCCOc2ccc(Nc3ncc(C(F)(F)F)c(O[C@H]4CC[C@@](C)(O)CC4)n3)cc2OCC1` [Example 7, (1s,4s)-1-methyl-4-((2-((7-methyl-2,3,6,7,8,9-hexahydro-5H-benzo[b][1,4,7]trioxa[10]azacyclododecan-12-yl)amino)-5-(trifluoromethyl)pyrimidin-4-yl)oxy)cyclohexan-1-ol] returned a solubility at 1 h in data set [6] (simulated gastric fluid, diluted hydrochloric acid solution A (pH-1.5), room temperature, 1 hour) greater than 3770 µg/mL. The solubility in data set [6] (ultrapure water (pH-6), room temperature overnight) is 680 µg/mL (≈ 1290 µM). The IC50 in data set [7] is less than 100 nM. Moreover, the inhibition at 2 µM in data set [8] was greater than 80%.

The inhibition is the share of the control response that was lost under treatment. As a reminder, the IC50 is the concentration needed to halve the response being measured. Usually EC50 stands for the concentration that produces a half-maximal response. The low end stands for an effect from little substance, the high end for a need for much substance. What is called solubility is the concentration that dissolves in the medium under given conditions. A low value points to little dissolved substance.

(Values after patent EP4592286A1, “MACROCYCLIC NITROGEN-CONTAINING CROWN ETHER COMPOUND AND USE THEREOF AS PROTEIN KINASE INHIBITOR” (Artivila Biopharma, priority 2022, dated 2024).)
